Measured values from patent US20230348376A1 (TEIJIN PHARMA LIMITED, priority 2020, published 2023).

The compounds below were run against T1, human VDR (Homo sapiens, UniProt P11473) (assay: Evaluation of VDR transcription activity in human osteoblasts (HOS cells), luciferase reporter). Details: Activity (EC50, VDR transcription activity), HOS cells transfected with human VDR, human RXRα and DR3 luciferase reporter; 21 hours.
T1 sequence (P11473 1-427): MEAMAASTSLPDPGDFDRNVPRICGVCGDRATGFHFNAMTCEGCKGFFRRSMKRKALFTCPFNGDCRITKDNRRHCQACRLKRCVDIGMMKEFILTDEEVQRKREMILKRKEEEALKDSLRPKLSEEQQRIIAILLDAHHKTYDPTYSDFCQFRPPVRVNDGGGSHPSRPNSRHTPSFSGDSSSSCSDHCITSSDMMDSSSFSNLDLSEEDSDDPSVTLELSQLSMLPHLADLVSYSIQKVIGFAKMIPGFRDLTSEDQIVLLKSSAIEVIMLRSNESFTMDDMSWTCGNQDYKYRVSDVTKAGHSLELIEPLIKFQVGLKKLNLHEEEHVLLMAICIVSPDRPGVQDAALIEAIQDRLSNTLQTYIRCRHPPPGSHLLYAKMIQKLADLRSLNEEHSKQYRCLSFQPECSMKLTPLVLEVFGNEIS
T1 sequence (P19793 1-462 partner): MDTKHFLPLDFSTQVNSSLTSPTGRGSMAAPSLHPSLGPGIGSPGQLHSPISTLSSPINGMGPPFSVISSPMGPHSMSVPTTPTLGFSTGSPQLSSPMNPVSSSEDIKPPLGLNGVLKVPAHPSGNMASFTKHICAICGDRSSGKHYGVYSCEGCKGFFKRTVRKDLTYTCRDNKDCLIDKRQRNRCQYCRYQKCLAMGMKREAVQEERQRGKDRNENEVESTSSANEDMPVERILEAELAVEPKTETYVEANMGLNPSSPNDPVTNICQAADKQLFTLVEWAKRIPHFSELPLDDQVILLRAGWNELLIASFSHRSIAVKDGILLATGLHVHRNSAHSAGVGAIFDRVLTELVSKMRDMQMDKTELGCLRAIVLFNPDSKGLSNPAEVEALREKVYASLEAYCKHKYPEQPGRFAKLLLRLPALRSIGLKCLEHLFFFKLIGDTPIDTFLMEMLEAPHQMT

Compared with `C=C1/C(=C\C=C2/CCC[C@]3(C)[C@@H]([C@H](C)CN4CC[C@@H](C(C)(F)F)C4)CC[C@@H]23)C[C@@H](O)[C@H](C)[C@@H]1O` [Compound B033, (1R,2S,3S,Z)-5-(2-((1R,3aS,7aR,E)-1-((S)-1-((R)-3-(1,1-difluoroethyl)pyrrolidin-1-yl)propan-2-yl)-7a-methyloctahydro-4H-inden-4-ylidene)ethylidene)-2-methyl-4-methylenecyclohexane-1,3-diol], `C=C1/C(=C\C=C2/CCC[C@]3(C)[C@@H]([C@H](C)CN4CC[C@H](CC(F)F)C4)CC[C@@H]23)C[C@@H](O)[C@H](C)[C@@H]1O` [Compound B038, (1R,2S,3S,Z)-5-(2-((1R,3aS,7aR,E)-1-((S)-1-((R)-3-(2,2-difluoroethyl)pyrrolidin-1-yl)propan-2-yl)-7a-methyloctahydro-4H-inden-4-ylidene)ethylidene)-2-methyl-4-methylenecyclohexane-1,3-diol] is higher in EC50: 1 to 10 nM for the first, 10 to 100 nM for the second.

`C=C1[C@H](O)CC(=C/C=C2\CCC[C@]3(C)[C@@H]([C@H](C)CN4CC[C@@H](C(C)(F)F)C4)CC[C@@H]23)C[C@H]1O` [Compound B035, (1R,3R)-5-(2-((1R,3aS,7aR,E)-1-((S)-1-((R)-3-(1,1-difluoroethyl)pyrrolidin-1-yl)propan-2-yl)-7a-methyloctahydro-4H-inden-4-ylidene)ethylidene)-2-methylenecyclohexane-1,3-diol] and `C=C1[C@H](O)CC(=C/C=C2\CCC[C@]3(C)[C@@H]([C@H](C)CN4CC[C@H](OC(F)F)C4)CC[C@@H]23)C[C@H]1O` [Compound B049, (1R,3R)-5-(2-((1R,3aS,7aR,E)-1-((S)-1-((S)-3-(difluoromethoxy)pyrrolidin-1-yl)propan-2-yl)-7a-methyloctahydro-4H-inden-4-ylidene)ethylidene)-2-methylenecyclohexane-1,3-diol] fall in the same range of EC50: 1 to 10 nM for the first, 1 to 10 nM for the second.

First: C=C1/C(=C\C=C2/CCC[C@]3(C)[C@@H]([C@H](C)CN4CC[C@@H](CC(F)F)C4)CC[C@@H]23)C[C@@H](O)[C@H](C)[C@@H]1O [Compound B039, (1R,2S,3S,Z)-5-(2-((1R,3aS,7aR,E)-1-((S)-1-((S)-3-(2,2-difluoroethyl)pyrrolidin-1-yl)propan-2-yl)-7a-methyloctahydro-4H-inden-4-ylidene)ethylidene)-2-methyl-4-methylenecyclohexane-1,3-diol]
Second: C=C1/C(=C\C=C2/CCC[C@]3(C)[C@@H]([C@H](C)CN4CC[C@@H](CCC(F)F)C4)CC[C@@H]23)C[C@@H](O)C[C@@H]1O [Compound B060, (1R,3S,Z)-5-(2-((1R,3aS,7aR,E)-1-((S)-1-((R)-3-(3,3-difluoropropyl)pyrrolidin-1-yl)propan-2-yl)-7a-methyloctahydro-4H-inden-4-ylidene)ethylidene)-4-methylenecyclohexane-1,3-diol]
The EC50 of the first is lower: 1 to 10 nM for the first, 10 to 100 nM for the second.

First: C=C1[C@H](O)CC(=C/C=C2\CCC[C@]3(C)[C@@H]([C@H](C)CN4CC[C@@H](OC(F)F)C4)CC[C@@H]23)C[C@H]1O [Compound B050, (1R,3R)-5-(2-((1R,3aS,7aR,E)-1-((S)-1-((R)-3-(difluoromethoxy)pyrrolidin-1-yl)propan-2-yl)-7a-methyloctahydro-4H-inden-4-ylidene)ethylidene)-2-methylenecyclohexane-1,3-diol]
Second: C=C1[C@H](O)CC(=C/C=C2\CCC[C@]3(C)[C@@H]([C@H](C)CN4CC[C@@H](OCC(F)F)C4)CC[C@@H]23)C[C@H]1O [Compound B056, (1R,3R)-5-(2-((1R,3aS,7aR,E)-1-((S)-1-((R)-3-(2,2-difluoroethoxy)pyrrolidin-1-yl)propan-2-yl)-7a-methyloctahydro-4H-inden-4-ylidene)ethylidene)-2-methylenecyclohexane-1,3-diol]
The EC50 of the first is lower: 1 to 10 nM for the first, 10 to 100 nM for the second. The first is the more potent here.

`C[C@H](CN1CC[C@@H](OC(F)F)C1)[C@H]1CC[C@H]2/C(=C/C=C3C[C@@H](O)C[C@H](O)C3)CCC[C@]12C` [Compound B052, (1R,3R)-5-(2-((1R,3aS,7aR,E)-1-((S)-1-((R)-3-(difluoromethoxy)pyrrolidin-1-yl)propan-2-yl)-7a-methyloctahydro-4H-inden-4-ylidene)ethylidene)cyclohexane-1,3-diol] and `C[C@H](CN1CC[C@H](CCC(F)F)C1)[C@H]1CC[C@H]2/C(=C/C=C3C[C@@H](O)C[C@H](O)C3)CCC[C@]12C` [Compound B063, (1R,3R)-5-(2-((1R,3aS,7aR,E)-1-((S)-1-((S)-3-(3,3-difluoropropyl)pyrrolidin-1-yl)propan-2-yl)-7a-methyloctahydro-4H-inden-4-ylidene)ethylidene)cyclohexane-1,3-diol] fall in the same range of EC50: 10 to 100 nM for the first, 10 to 100 nM for the second.

`C=C1/C(=C\C=C2/CCC[C@]3(C)[C@@H]([C@H](C)CN4CC[C@H](OCC(F)F)C4)CC[C@@H]23)C[C@@H](O)C[C@@H]1O` [Compound B053, (1R,3S,Z)-5-(2-((1R,3aS,7aR,E)-1-((S)-1-((S)-3-(2,2-difluoroethoxy)pyrrolidin-1-yl)propan-2-yl)-7a-methyloctahydro-4H-inden-4-ylidene)ethylidene)-4-methylenecyclohexane-1,3-diol] and `C=C1/C(=C\C=C2/CCC[C@]3(C)[C@@H]([C@H](C)CN4CC[C@@H](OCC(F)F)C4)CC[C@@H]23)C[C@@H](O)C[C@@H]1O` [Compound B054, (1R,3S,Z)-5-(2-((1R,3aS,7aR,E)-1-((S)-1-((R)-3-(2,2-difluoroethoxy)pyrrolidin-1-yl)propan-2-yl)-7a-methyloctahydro-4H-inden-4-ylidene)ethylidene)-4-methylenecyclohexane-1,3-diol] fall in the same range of EC50: 10 to 100 nM for the first, 10 to 100 nM for the second.

`C=C1/C(=C\C=C2/CCC[C@]3(C)[C@@H]([C@H](C)CN4CC[C@H](OC(F)(F)F)C4)CC[C@@H]23)C[C@@H](O)C[C@@H]1O` [Compound B065, (1R,3S,Z)-5-(2-((1R,3aS,7aR,E)-7a-methyl-1-((S)-1-((S)-3-(trifluoromethoxy)pyrrolidin-1-yl)propan-2-yl)octahydro-4H-inden-4-ylidene)ethylidene)-4-methylenecyclohexane-1,3-diol] and `C=C1/C(=C\C=C2/CCC[C@]3(C)[C@@H]([C@H](C)CN4CC[C@@H](OC(F)(F)F)C4)CC[C@@H]23)C[C@@H](O)C[C@@H]1O` [Compound B066, (1R,3S,Z)-5-(2-((1R,3aS,7aR,E)-7a-methyl-1-((S)-1-((R)-3-(trifluoromethoxy)pyrrolidin-1-yl)propan-2-yl)octahydro-4H-inden-4-ylidene)ethylidene)-4-methylenecyclohexane-1,3-diol] fall in the same range of EC50: 10 to 100 nM for the first, 10 to 100 nM for the second.

First: C=C1/C(=C\C=C2/CCC[C@]3(C)[C@@H]([C@H](C)CN4CC[C@](C)(O)C4)CC[C@@H]23)C[C@@H](O)C[C@@H]1O [Compound B071, (1R,3S,Z)-5-(2-((1R,3aS,7aR,E)-1-((S)-1-((S)-3-hydroxy-3-methylpyrrolidin-1-yl)propan-2-yl)-7a-methyloctahydro-4H-inden-4-ylidene)ethylidene)-4-methylenecyclohexane-1,3-diol]
Second: C=C1/C(=C\C=C2/CCC[C@]3(C)[C@@H]([C@H](C)CN4CC[C@@](C)(O)C4)CC[C@@H]23)C[C@@H](O)C[C@@H]1O [Compound B074, (1R,3S,Z)-5-(2-((1R,3aS,7aR,E)-1-((S)-1-((R)-3-hydroxy-3-methylpyrrolidin-1-yl)propan-2-yl)-7a-methyloctahydro-4H-inden-4-ylidene)ethylidene)-4-methylenecyclohexane-1,3-diol]
The EC50 of the first is lower: 10 to 100 nM for the first, 100 to 1000 nM for the second. The first is the more potent here.

`C=C1[C@H](O)CC(=C/C=C2\CCC[C@]3(C)[C@@H]([C@H](C)CN4CCC(O)(C5CC5)C4)CC[C@@H]23)C[C@H]1O` (stereo partly drawn) [Compound B077, (1R,3R)-5-(2-((1R,3aS,7aR,E)-1-((2S)-1-(3-cyclopropyl-3-hydroxypyrrolidin-1-yl)propan-2-yl)-7a-methyloctahydro-4H-inden-4-ylidene)ethylidene)-2-methylenecyclohexane-1,3-diol] and `C[C@H](CCN1CC[C@H](C(F)F)C1)[C@H]1CC[C@H]2/C(=C/C=C3C[C@@H](O)C[C@H](O)C3)CCC[C@]12C` [Compound B080, (1R,3R)-5-(2-((1R,3aS,7aR,E)-1-((R)-4-((S)-3-(difluoromethyl)pyrrolidin-1-yl)butan-2-yl)-7a-methyloctahydro-4H-inden-4-ylidene)ethylidene)cyclohexane-1,3-diol] fall in the same range of EC50: 10 to 100 nM for the first, 10 to 100 nM for the second.

`C[C@H](CCN1CC[C@@H](C(F)F)C1)[C@H]1CC[C@H]2/C(=C/C=C3C[C@@H](O)C[C@H](O)C3)CCC[C@]12C` [Compound B081, (1R,3R)-5-(2-((1R,3aS,7aR,E)-1-((R)-4-((R)-3-(difluoromethyl)pyrrolidin-1-yl)butan-2-yl)-7a-methyloctahydro-4H-inden-4-ylidene)ethylidene)cyclohexane-1,3-diol] gave an EC50 of 10 to 100 nM.
